pEC50, pIC50: −log10 of the molar value. Active and inactive are the calls of the source.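 Rule for the calls: active = compounds giving half or more protection of infected cells from virus-caused growth loss, again on retest; inactive = the rest.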
System: CEM cells HIV-1 protection, formazan growth assay
Assay: NCI AIDS Antiviral Assay
Settings: for pIC50: measured here: growth of uninfected CEM cells
In short: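 Steps: treat uninfected and HIV-1-infected human CEM cells at five drug levels; quantify growth by soluble formazan; retest any compound reaching 50% protection; classify actives from the retest.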

SMILES | pEC50 | pIC50 | outcome
N#CC(C#N)=Cc1ccccc1F | < 3.99 | 4.76 | –
O=C(Cc1ccccc1)NN1C(=O)C(Cl)C1c1ccccc1 (centres undefined) | < 4.50 | < 4.50 | –
CCOP(=O)(OCC)/C(C#N)=C/c1cccn1Cc1ccccc1 | < 3.70 | 4.60 | –
C[C@]12CCNC(=O)C=C1CC[C@@H]1C2CC[C@@]2(C)C1CC[C@@H]2OC(=O)COc1ccc(N(CCCl)CCCl)cc1 (some centres undefined) | – | – | inactive
Nc1[nH]c(=S)c2c(N)n[nH]c2c1C(=O)Nc1ccccc1 | < 3.70 | 4.04 | –
CCOC(=O)C1=CN=C2C(=O)N(c3ccccc3)N(C)C2(C)C1=N (centres undefined) | < 3.70 | < 3.70 | –
Cc1c(O)c2ccccc2oc1=O | < 3.70 | < 3.70 | –
O=C(/C=C/c1ccc(O)c(O)c1)CC(=O)/C=C/c1ccc(O)c(O)c1 | < 3.70 | 4.99 | –
O=C(NC/C(Cl)=C/Cl)Nc1c2ccccc2nc2ccccc12 | < 3.70 | 4.66 | –
CC(O)C1OC(O)C2OC(C)(C)OC12 (centres undefined) | < 3.70 | < 3.70 | –
C/C=C(\C)C(=O)N1c2ccccc2CC1c1c(C)[nH]c2ccccc12 (centres undefined) | < 4.66 | 5.16 | –
Cc1cccc(C(C)(C)C)c1NC(=O)/C(Cc1nc2ccc([N+](=O)[O-])cc2[nH]c1=O)=N/NC(=O)C[N+](C)(C)C | < 3.36 | 4.22 | –
CCCOC(=O)CCC(NC(=O)c1ccc(Nc2nc3ccccc3nc2-c2cccs2)cc1)C(=O)OCCC (centres undefined) | < 5.31 | < 5.31 | –
C/C=C1\CN2CCc3c([nH]c4ccccc34)C2CC1C(=O)OC (centres undefined) | < 3.66 | < 3.66 | –
CC(=O)Nc1ccc(-c2nnc(SCC(=O)Nc3ccccc3Cl)o2)cc1 | < 4.33 | < 4.33 | –
CC1(C)OCC(C2OC3OC(C)(C)OC3C2=O)O1 (centres undefined) | – | – | inactive
Nc1nc(N)n2c(N)nnc2n1 | < 3.70 | < 3.70 | –
CCOC(=O)/C(=C\c1cccc([N+](=O)[O-])c1)C(C)=O | – | – | inactive
COC(=O)c1c2c(cc3nc4ccccc4nc13)OCO2 | < 3.70 | < 3.70 | –
COC1C(OC(=O)c2ccc(C)[nH]2)C(O)C(Oc2ccc3c(O)c(NC(=O)c4c[nH]c(C(=O)Nc5c(O)c6ccc(OC7OC(C)(C)C(OC)C(OC(=O)c8ccc(C)[nH]8)C7O)c(C)c6oc5=O)c4C)c(=O)oc3c2C)OC1(C)C (centres undefined) | < 4.55 | 5.13 | –
COCC(N=CN1CCCc2ccccc2[C@@H]1CCCCl)C(C)(C)C (some centres undefined) | < 3.70 | 4.65 | –

SMILES | pEC50 | pIC50 | outcome
C(=N\NC1=NCCCN1)/c1ccc(-c2cn3cc(/C=N/NC4=NCCCN4)ccc3n2)cc1 | < 4.00 | 4.73 | –
COc1ccc(-c2cc(=O)c3c(O)cc(O)cc3o2)cc1Oc1ccc(-c2cc(=O)c3c(O)cc(O)cc3o2)cc1 | < 3.70 | 5.57 | –
CC[C@H](C)N(CCN)C(=O)c1cc2ccccc2c(-c2ccccc2Cl)n1 | – | – | inactive
Brc1cn2[n+](c1)[B-]n1cc(Br)c[n+]1[B-]2 | < 3.70 | 3.86 | –
S=C(N/N=C/c1ccco1)NC12CC3CC(CC(C3)C1)C2 | – | – | inactive
COc1cc2c(cc1OC)C(C#N)(Cc1ccccc1)N(C(=O)c1ccccc1)C=C2 (centres undefined) | – | – | inactive
O=[N+]([O-])/C(Cl)=C(/C(Cl)=C(Cl)Cl)N1CCCCC1 | < 3.70 | 4.91 | –
O=C1CC2CCCC(=O)C23CCC[C@H]13 (some centres undefined) | < 3.49 | < 3.49 | –
CN(C)CN1C(=O)S/C(=C2\C(=O)N(CN(C)C)c3ccccc32)C1=O | < 3.70 | 4.42 | –
Cc1cn(C2CC(F)C(COC(=O)CCCCCCCCCCCBr)O2)c(=O)[nH]c1=O (centres undefined) | 7.62 | 4.54 | –
O=C1c2cc([N+](=O)[O-])cnc2S(=O)(=O)N1c1ccc(Br)cc1 | < 3.70 | 4.02 | –
[N-]=[N+]=Nc1ccc2c(c1)Sc1ccccc1N2CCCCCl | < 3.70 | 4.57 | –
COc1ccc2ccc3[nH]c4c(C)cnc(NCCCN(C)C)c4c3c2c1 | < 5.70 | 6.48 | –
CCOc1cc(N=Nc2cc(Cl)c(S(=O)(=O)O)cc2Cl)c2cc(S(=O)(=O)O)ccc2c1N=Nc1c(S(=O)(=O)O)cc2cc(NC(=O)c3ccc(N)cc3)ccc2c1O | – | – | active
COc1ccc(/C=C/C(=O)c2c(-c3ccccc3)nn(C)c(=O)c2N2CCCC2)cc1 | < 4.17 | < 4.17 | –
CC(C)Oc1nc(N2CCNCC2)nc2c1CCC2 | < 3.70 | 4.40 | –
COc1cc2c(cc1OC)[C@H](C(=O)O)[C@@H](c1ccc(OC(C)C)c(OC)c1)N(C)C2=O | < 3.70 | < 3.70 | –
C=C1C(=O)OC2CC(C)C(C(O)CC(C)O)=CCC12 (centres undefined) | < 3.35 | 5.08 | –
CCN(CC)CCN(C(=O)C(C)(C)C)c1ccccc1N | < 3.70 | < 3.70 | –
O=S(=O)(CCC[C@H]1[C@@H](CCOCc2ccccc2)C2CCCN1O2)c1ccccc1 (some centres undefined) | < 3.70 | 4.02 | –
OC1COCC2N3C(=NN12)Sc1ccccc13 (centres undefined) | – | – | inactive

SMILES | pEC50 | pIC50 | outcome
CC(C)Oc1cc2c(c3oc(=O)c4c(c13)CCC4)C(=O)[C@H](C)[C@@H](C)O2 | < 3.70 | 4.40 | –
O=C1NC(=O)/C(=C\c2ccncc2)N1 | < 3.70 | < 3.70 | –
C/C=C/C=C\C=C/C(O)CC(OP(=O)(O)O)C(C)(O)/C=C/C1CC=CC(=O)O1 (centres undefined) | < 3.24 | 4.48 | –
NC(=S)N/N=C(/CC(=O)c1ccc([N+](=O)[O-])cc1)C(=O)Nc1ncc([N+](=O)[O-])s1 | < 4.08 | 4.09 | –
C=C(CCC(Cl)C(O)CO)[Si](C)(C)C (centres undefined) | < 3.96 | < 3.96 | –
N#CSCC(Cl)=CCl (mixture of isomers) | < 3.70 | 4.31 | –
CN(C)c1ccc(/C=C2/N=C(c3ccccc3)OC2=O)cc1 | < 3.70 | 3.85 | –
COc1ccc(C[C@H]2COC(=O)[C@@H]2Cc2cc(OC)c(O)c(OC)c2)cc1OC | < 3.70 | 4.40 | –
Oc1ccc(C2Oc3cc(OC4OCC(O)C(O)C4O)cc(O)c3CC2O)cc1O (centres undefined) | < 3.70 | < 3.70 | –
S=C(N/N=C/c1ccccn1)N1CCCCCC1 | < 6.70 | 7.98 | –
COc1c2ccoc2cc2oc(=O)ccc12 | < 4.23 | < 4.23 | –
O=C(/C=C/c1ccsc1)c1ccc(Cl)s1 | < 3.70 | – | –
Cc1ccc(C2(O)CSC(=NC34CC5CC(CC(C5)C3)C4)N2C(P(=O)(O)O)P(=O)(O)O)cc1 (centres undefined) | < 3.70 | 4.39 | –
N#CC1=C(C#N)SCCCS1 | < 4.83 | < 4.83 | –
Cc1ccc(Cc2n[nH]c(=O)[nH]2)cc1 | < 3.70 | < 3.70 | –
OCC(O)CC[CH2][Sn]([Br])([c]1ccccc1)[c]1ccccc1 (centres undefined) | – | – | inactive
NC1=NCCC1(c1ccccc1)c1ccccn1 (centres undefined) | < 3.26 | 3.31 | –
C=CC(C)(C)N[C@@H](C(=O)N1CCC[C@H]1c1nc(-c2nc(C(=O)OCC=C(C)C)c(C)o2)c(C)o1)C(C)C | < 3.70 | 4.23 | –
CC(C)(C)O/C=C1/C(=O)OC2C[C@@H](O[Si](C)(C)C(C)(C)C)CC12 (some centres undefined) | < 3.70 | 3.92 | –
Cc1cn(C2CC(N=[N+]=[N-])C(COC(=O)CCCCCCCCCCCI)O2)c(=O)[nH]c1=O (centres undefined) | 7.31 | 3.99 | –

— PubChem BioAssay AID179 (DTP/NCI, 2004)
